Marks after values point to notes of the source that are not given here.
Experiment: Mechanical properties measurement (3-point bend tests)
Assay type: physicochemical
Method: In this example, the elastic modulus, ultimate strength, and work of fracture were determined for the monomers of the present invention. […] The resin was injected into the mold and cured by irradiation (500 mW/cm^2) followed by storage in the dark for 4 hours and 24 hours before mechanical tests were conducted. Three point bending tests were conducted using an electromagnetic mechanical testing machine (Enduratec Model 3200) with a 20-mm span and at a crosshead displacement rate of 0.5mm/ min at room temperature (25° C.). Load-displacement data were collected at 100 Hz. […] Flexural ultimate strength was determined from the peak loads and work of fracture was determined from the area under the stress-strain curve.

[1] = 4-hour Post Cure, 10 mol % TOSU in SIL-MIX
[2] = 4-hour Post Cure, 25 mol % TOSU in SIL-MIX
[3] = 24-hour Post Cure, 10 mol % TOSU in SIL-MIX
[4] = 24-hour Post Cure, 25 mol % TOSU in SIL-MIX

Q: For `CCC1(COCCC[Si](C)(C)C)COC2(OC1)OCC(CC)(COCCC[Si](C)(C)C)CO2` (stereo not shown) [Monomer 6, 3,9-diethyl-3,9-bis(3-trimethylsilylpropyloxymethyl)-1,5,7,11-tetraoxaspiro[5.5]undecane], which Flexural elastic modulus (4-h Post Cure, 10 mol % TOSU in SIL-MIX) is on record?
A: 1.61 (0.17)^a GPa

Q: And the Flexural elastic modulus (4-h Post Cure, 25 mol % TOSU in SIL-MIX)?
A: 1.33 (0.18)^a GPa

Q: What about the Flexural strength [1] of the same compound?
A: 58.77 (19.08)^a,b MPa

Q: And the Work of Fracture [1]?
A: 2.67 (1.25)^a kJ/m^2

Q: And the Flexural strength [2]?
A: 30.90 (11.36)^a MPa

Q: And the Work of Fracture [2]?
A: 0.73 (0.38)^a kJ/m^2

Q: And the “24-hour modulus values as % of those for SIL-MIX alone” value (10 mol % TOSU)?
A: 77%

Q: What about the “24-hour strength values as % of those for SIL-MIX alone” value (“24-hour strength values as % of those” below) (10 mol % TOSU) of the same compound?
A: 84%

Q: And the “24-hour work of fracture values as % of those for SIL-MIX alone” value (10 mol % TOSU)?
A: 100%

Q: What about the “24-hour strength values as % of those” value (10 mol % TOSU, listed as TOSU) of the same compound?
A: 85%

Q: And the Flexural elastic modulus (24-h Post Cure, 10 mol % TOSU in SIL-MIX)?
A: 2.41 (0.24)^b GPa

Q: What about the Flexural elastic modulus (24-h Post Cure, 25 mol % TOSU in SIL-MIX) of the same compound?
A: 1.87 (0.06)^a GPa

Q: What about the Flexural strength [3] of the same compound?
A: 76.90 (10.19)^a,b MPa

Q: And the Work of Fracture [3]?
A: 3.07 (0.81)^a,b kJ/m^2

Q: What about the Flexural strength [4] of the same compound?
A: 56.63 (11.11)^a MPa

Q: And the Work of Fracture [4]?
A: 1.80 (0.87)^a kJ/m^2

Q: And the “24-hour modulus values as % of those for SIL-MIX alone” value (25 mol % TOSU)?
A: 60%

Q: And the “24-hour strength values as % of those” value (25 mol % TOSU)?
A: 60%

Q: What about the “24-hour work of fracture values as % of those for SIL-MIX alone” value (25 mol % TOSU) of the same compound?
A: 66%
